Several values for one entry are separate records, joined by “and”; a condition that tells them apart may be missing. Equal entries are not always repeated. Where two headings read alike, the source gives them in different places.
Test system: BTN2A−/− MIA PaCa-2 (BTN2A1/BTN2A2 KO) cells
Assay: Cell killing assay with BTN2A−/− MIA PaCa-2 (BTN2A1/BTN2A2 KO) cells expressing BTN2A1/BTN2A2 variants
Details: for Cytotoxicity of Vγ9Vδ2 T cells (percentage of specific lysis): replicates; for EC50: Homo sapiens
[1] = 2A1 ∆C, source data Ext. Fig. 3c
[2] = Ext. Fig. 6d, cells expressing 2A1 WT, three-parameter fit
[3] = Ext. Fig. 6d, cells expressing 2A2 G352Y354QR/M506T/W374R, three-parameter fit
[4] = Ext. Fig. 6d, cells expressing 2A2 G352Y354QR, three-parameter fit
[5] = Ext. Fig. 6d, cells expressing 2A2 M506T, three-parameter fit
[6] = Ext. Fig. 6d, cells expressing 2A2 W374R/M506T, three-parameter fit
[7] = Ext. Fig. 6d, cells expressing 2A2 W374R, three-parameter fit
[8] = Ext. Fig. 6d, cells expressing 2A2 WT, three-parameter fit

C/C(=C\COP(=O)(O)OP(=O)(O)O)CO [Compound 1, (E)-4-hydroxy-3-methylbut-2-en-1-yl diphosphate]
LogEC50, best-fit value [1]: -4.358 | Span (best-fit value) [1]: 32.38 | Top, best-fit value, log(agonist) vs. response (three parameters) [1]: 50.91 | Bottom (best-fit value) [2]: 37.79 | Span (best-fit value) [2]: 24.09 | Top (best-fit value) [2]: 61.87 | Bottom (best-fit value) [3]: 32.14 | Span (best-fit value) [3]: 22.27 | Top (best-fit value) [3]: 54.4 | Bottom (best-fit value) [4]: 19.82 | Span (best-fit value) [4]: 7.278 | Top (best-fit value) [4]: 27.1 | Bottom (best-fit value) [5]: 17.84 | Span (best-fit value) [5]: 32.36 | Top (best-fit value) [5]: 50.2 | Bottom (best-fit value) [6]: 21.03 | Span (best-fit value) [6]: 27.17 | Top (best-fit value) [6]: 48.19 | Bottom (best-fit value) [7]: 17.13 | Span (best-fit value) [7]: 18.41 | Top (best-fit value) [7]: 35.54 | Bottom (best-fit value) [8]: 21.2 | Span (best-fit value) [8]: 14.17 | Top (best-fit value) [8]: 35.37 | Cytotoxicity of Vγ9Vδ2 T cells (percentage of specific lysis) (HMBPP log concentration -4, 2A1 WT cells): 70.1646% and 71.1001% and 71.513% | Cytotoxicity of Vγ9Vδ2 T cells (percentage of specific lysis) (HMBPP log concentration -4, 2A1 ∆C cells): 41.112% and 41.0173% and 41.0139% | Cytotoxicity of Vγ9Vδ2 T cells (percentage of specific lysis) (HMBPP log concentration -5, 2A1 WT cells): 64.2316% and 64.2674% and 65.8786% | Cytotoxicity of Vγ9Vδ2 T cells (percentage of specific lysis) (HMBPP log concentration -5, 2A1 ∆C cells): 23.0147% and 25.2364% and 24.5941% | Cytotoxicity of Vγ9Vδ2 T cells (percentage of specific lysis) (HMBPP log concentration -6, 2A1 WT cells): 56.2518% and 58.0065% and 60.1294% | Cytotoxicity of Vγ9Vδ2 T cells (percentage of specific lysis) (HMBPP log concentration -6, 2A1 ∆C cells): 18.5277% and 22.0034% and 20.9688% | Cytotoxicity of Vγ9Vδ2 T cells (percentage of specific lysis) (HMBPP log concentration -7, 2A1 WT cells): 48.0249% and 51.1234% and 56.1132% | Cytotoxicity of Vγ9Vδ2 T cells (percentage of specific lysis) (HMBPP log concentration -7, 2A1 ∆C cells): 26.9403% and 18.9725% and 19.5843% | Cytotoxicity of Vγ9Vδ2 T cells (percentage of specific lysis) (HMBPP log concentration -8, 2A1 WT cells): 44.2956% and 44.0311% and 51.5761% | Cytotoxicity of Vγ9Vδ2 T cells (percentage of specific lysis) (HMBPP log concentration -8, 2A1 ∆C cells): 23.996% and 19.5568% and 15.4363% | Cytotoxicity of Vγ9Vδ2 T cells (percentage of specific lysis) (HMBPP log concentration -9, 2A1 WT cells): 35.2231% and 37.6052% and 42.4431% | Cytotoxicity of Vγ9Vδ2 T cells (percentage of specific lysis) (HMBPP log concentration -9, 2A1 ∆C cells): 20.428% and 19.6068% and 15.0611% | Cytotoxicity of Vγ9Vδ2 T cells (percentage of specific lysis) (HMBPP log concentration -10, 2A1 WT cells): 29.643% and 30.0604% and 32.9175% | Cytotoxicity of Vγ9Vδ2 T cells (percentage of specific lysis) (HMBPP log concentration -10, 2A1 ∆C cells): 15.4573% and 16.0868% and 15.1497% | Cytotoxicity of Vγ9Vδ2 T cells (percentage of specific lysis) (HMBPP log concentration -11, 2A1 WT cells): 26.3218% and 25.6969% and 24.6851% | Cytotoxicity of Vγ9Vδ2 T cells (percentage of specific lysis) (HMBPP log concentration -11, 2A1 ∆C cells): 16.8095% and 15.8259% and 16.2096% | EC50 (MIA PaCa-2, 144 h, Ext. Fig. 6d, cells expressing 2A1 WT, three-parameter fit): 90.3 nM | EC50 (MIA PaCa-2, 144 h, Ext. Fig. 6d, cells expressing 2A2 G352Y354QR/M506T/W374R, three-parameter fit): 176 nM | EC50 (MIA PaCa-2, 144 h, Ext. Fig. 6d, cells expressing 2A2 M506T, three-parameter fit): 266 nM | EC50 (MIA PaCa-2, 144 h, Ext. Fig. 6d, cells expressing 2A2 W374R/M506T, three-parameter fit): 191 nM | EC50 (MIA PaCa-2, 144 h, read-out: LogEC50, Ext. Fig. 6d (converted), cells expressing 2A1 WT, log(Concentration)/M, three-parameter fit): 90.2 nM | EC50 (MIA PaCa-2, 144 h, read-out: LogEC50, Ext. Fig. 6d (converted), cells expressing 2A2 G352Y354QR/M506T/W374R, log(Concentration)/M, three-parameter fit): 176 nM | EC50 (MIA PaCa-2, 144 h, read-out: LogEC50, Ext. Fig. 6d (converted), cells expressing 2A2 M506T, log(Concentration)/M, three-parameter fit): 267 nM | EC50 (MIA PaCa-2, 144 h, read-out: LogEC50, Ext. Fig. 6d (converted), cells expressing 2A2 W374R/M506T, log(Concentration)/M, three-parameter fit): 191 nM | EC50 (MIA PaCa-2, read-out: EC50 (nM), MIA PaCa-2 cell lysis by Vγ9Vδ2 T cells exposed to HMBPP, 2A1 WT): 90.3 nM | EC50 (MIA PaCa-2, read-out: EC50 (nM), MIA PaCa-2 cell lysis by Vγ9Vδ2 T cells exposed to HMBPP, active chimera bearing G352Y354QR/ M506T/W374R): 176 nM | EC50 (MIA PaCa-2, read-out: EC50 (nM), MIA PaCa-2 cell lysis by Vγ9Vδ2 T cells exposed to HMBPP, active chimera bearing W374R/M506T): 191 nM | EC50 (MIA PaCa-2, read-out: EC50 (μM) of Vγ9Vδ2 T cells towards BTN2A−/− MIA PaCa-2 in the presence of HMBPP, NT cells): 12800 nM | EC50 (MIA PaCa-2, read-out: EC50 (μM) of Vγ9Vδ2 T cells towards BTN2A−/− MIA PaCa-2 in the presence of HMBPP, transfected 2A1 WT): 800 nM | EC50 (MIA PaCa-2, read-out: EC50 (μM) of Vγ9Vδ2 T cells towards BTN2A−/− MIA PaCa-2 in the presence of HMBPP, transfected 2A1 variant D455G/E457R): 61100 nM | EC50 (MIA PaCa-2, read-out: EC50 (μM) of Vγ9Vδ2 T cells towards BTN2A−/− MIA PaCa-2 in the presence of HMBPP, transfected 2A1 variant R477A): 19700 nM | EC50 (MIA PaCa-2, read-out: EC50 (μM) of Vγ9Vδ2 T cells towards BTN2A−/− MIA PaCa-2 in the presence of HMBPP, transfected 2A1 variant T510A): 1.17e+06 nM | EC50 (MIA PaCa-2, read-out: EC50 (μM) of Vγ9Vδ2 T cells towards BTN2A−/− MIA PaCa-2 in the presence of HMBPP, transfected 2A1 variant T510M): 97700 nM | EC50 (MIA PaCa-2, read-out: EC50 (μM) of Vγ9Vδ2 T cells towards BTN2A−/− MIA PaCa-2 in the presence of HMBPP, transfected 2A1 variant V511A): 130000 nM | EC50 (MIA PaCa-2, read-out: EC50 (μM) of Vγ9Vδ2 T cells towards BTN2A−/− MIA PaCa-2 in the presence of HMBPP, transfected 2A1 variant V511D): 12500 nM | EC50 (MIA PaCa-2, read-out: EC50 (μM) of Vγ9Vδ2 T cells towards BTN2A−/− MIA PaCa-2 in the presence of HMBPP, transfected 2A1 variant V511W): 389000 nM | EC50 (MIA PaCa-2, read-out: EC50 (μM) of Vγ9Vδ2 T cells towards BTN2A−/− MIA PaCa-2 in the presence of HMBPP, transfected 2A1 variant ΔC): 17500 nM | EC50 (MIA PaCa-2, read-out: EC50, MIA PaCa-2 lysis, BTN2A−/− MIA PaCa-2 stably expressing BTN2A1 WT): 12.9 nM | EC50 (MIA PaCa-2, read-out: EC50, best-fit value, 2A1 WT, unit not printed in the sheet (b166 prints […])): 12.9 nM | EC50 (MIA PaCa-2, read-out: EC50, best-fit value, 2A1 ∆C, unit not printed in the sheet (b166 prints […])): 43900 nM

Reference: publication PMC10533412, “Phosphoantigens glue butyrophilin 3A1 and 2A1 to activate Vγ9Vδ2 T cells” (Nature, 2023)
